Assay results: patent US9557333B2, “Methods of treating gastrointestinal sarcoma patients depending on their sB7H6 serum level” (INSTITUT GUSTAVE ROUSSY, priority 2012, dated 2017)

Experiments:
sB7H6 = assay: Serum sB7H6 measured by ELISA longitudinally during IM treatment of GIST patients; format: in vivo, human
Experimental: 49 GIST patients were treated with imatinib (IM) from May 1994 until October 2010 (BFR14 cohort). Patients' samples were provided by the Gustave Roussy Institute (Villejuif, France) and the Centre Léon Bérard (Lyon). Sera were drained from blood drawn during control visits. Clinical responses were assessed by computed tomography (CT) scan and the responses were classified according to the RECIST criteria.
(§1) sB7H6 and sMIC were assessed from the sera of patients by the ELISA method.
Soluble B7-H6 detection was assessed from sera of patients by the ELISA method: 17B1.3 mAbs was coated at 5 μg/ml in 0.1 M NaHCO3 solution overnight at 4° C. in 96-well Nunc-Immuno™ plates (Thermo Scientific). Blocking solution (PBS supplemented with 3% BSA) was then added overnight at 4° C. After discarding this solution, serial dilutions of sB7-H6 were incubated for 3 hours at room temperature. Then biotin-conjugated 9G9.2 was added to each well (1 μg/ml in PBS supplemented with 1% BSA) for 1 hour at room temperature. Anti-biotin HRP (Sigma-Aldrich) was then added for 1 hour at room temperature. Finally, BD Optia TMB substrate (BD Biosciences) was used to reveal the staining and left to incubate for 15-30 minutes at room temperature. The reaction was stopped with 1 M HCl and the optic density (OD) at 450 nm was read with Apollo LB 911 from Berthold.

sMIC = assay: Serum sMIC measured by ELISA longitudinally during IM treatment of GIST patients; format: in vivo, human; conditions: followed during treatment
Experimental: 49 GIST patients were treated with imatinib (IM) from May 1994 until October 2010 (BFR14 cohort). Patients' samples were provided by the Gustave Roussy Institute (Villejuif, France) and the Centre Léon Bérard (Lyon). Sera were drained from blood drawn during control visits. Clinical responses were assessed by computed tomography (CT) scan and the responses were classified according to the RECIST criteria. GIST tumor samples were obtained following surgery carried out at the Gustave Roussy Institute (Villejuif, France).
as §1

Structure (SMILES): Cc1ccc(NC(=O)c2ccc(CN3CCN(C)CC3)cc2)cc1Nc1nccc(-c2cccnc2)n1 [IM, imatinib]
- levels of sB7H6 in sera after 1 year of IM treatment (sB7H6; after 1 year of treatment): not detected
- levels of sB7H6 in sera during IM treatment (sB7H6; followed with time of treatment): decreased with the time of treatment
- levels of sMIC in sera following IM treatment (sMIC): tend to decrease
